Measured values published in patent US4663323A, “Tetrazole derivatives, anti-ulcer composition containing the same and method for treating ulcers” (Otsuka Pharmaceutical Co., Ltd., priority 1984, dated 1987).
Where two headings read alike, the source gives them in different places.

Columns and labels:
gastric juice secretion = test: Shay rat pylorus ligation method (gastric juice secretion-inhibiting activity); type: in vivo, male Wistar rats; details: sc, 4 h, 100 mg/kg s.c., 30 min before pylorus ligation, measured 4 hours after ligation
Experimental: The pharmacological activities of the compouns (I) were tested by a Shay rat pylorus ligation method (cf. H. Shay et al: Gastroenterol., Vol. 5, page 43, 1945) which is the most popular method for testing of gastric juice secretion-inhibiting activity. The test was carried out by using male Wistar rats, weighing about 170 g and fasting for 24 hours.
Test compounds were administered 30 minutes before the pylorus ligation in a dose of 100 mg/kg in subcutaneous route, and the volume, total acidity and/or pepsin activity of the gastric juice were measured 4 hours after the ligation. As a control, a saline solution was administered instead of the test compound. The inhibitory ratio (%) of the test compounds were calculated when the inhibitory activities of the control were counted as zero (0).
(§1) In the table, the inhibitory ratio (%) was evaluated as follows: […]

Stress Ulcer = test: Stress Ulcer; type: in vivo, male Wistar rats; details: oral, 1×10^-3 mole in 0.5% CMC, before restraint and water dipping at 23° C. for 7 hours
Experimental: After male Wistar rats weighing about 170 g was fasted for 24 hours, the rats were restrained in a stress cage and dipped in water bath at 23° C. till chest of the animals. After 7 hours, the rats were killed and the stomach was isolated. Into the isolated stomach 10% formalin (8 ml) was poured and settled. The stomach was cut open at the greater curvature, and the length of each ulcer on the membrane was measured. Sum of the length of all ulcers was shown as ulcer index (UI). The test compound was orally administered to the rats before restraint in a stress cage in the form of 0.5% CMC suspension in a concentration of 1×10^-3 mole. As a control, only the solvent (CMC solution) was administered likewise.
The inhibitory ratio (%) of stress ulcer of the test compounds was calculated by the following equation: [formula]
as §1

Acute Toxicity = details: rat, in vivo, po, male Wistar rats
Experimental: The test compounds were orally administered to male Wistar rats, and the half lethal dose (LD50) was measured.

[1] = test system: Acetic Acid-Induced Ulcer; test: Acetic Acid-Induced Ulcer; type: in vivo, Male Wistar rats; details: oral, twice a day for 12 days
Experimental: Male Wistar rats were used. Under anestherization, the abdomen of rats were opened to expose stomach, and then 30% aqueous acetic acid (0.015 ml) was injected below serous membrane which was located at boundary area of true gastric gland and pyloric glands and thereafter the abdomen was closed, by which an experimental ulcer was induced.
The test compound was orally administered in the dose as shown in Table 3 in the form of 0.5% CMC suspension or solution twice a day for 12 days after the acetic acid-induced ulcer was produced. As a control, only the solvent (CMC solution) was administered likewise.
After the reproduced mucous membrane was removed around the ulcers, the open area of ulcers was measured with a micrometer, and the sum of ulcer area was shown as ulcer index (UI). The inhibitory ratio (%) of acetic acid-induced ulcer of the test compounds was calculated in the same manner as in Pharmacological Test 2.
as §1

[2] = test system: Indomethacin-Induced Ulcer; test: Indomethacin-Induced Ulcer; type: in vivo, male Wistar rats; details: oral, 3×10^-4 mole in 0.5% CMC, 30 min before indomethacin 20 mg/kg s.c.
Experimental: After male Wistar rats weighing about 160 g was fasted for 24 hours, indomethacin was subcutaneously administered to the rats in a dose of 20 mg/kg in the form of a suspension in a mixture of 0.5% CMC and a small amount of Tween 80 (i.e. polyoxyethylene sorbitan monooleate). After 5 hours, the rats were killed and the stomach was isolated. Into the isolated stomach 10% formalin (8 ml) was poured and settled. The stomach was cut open at the greater curvature, and the length of each ulcer on the membrane was measured, based on which results the inhibitory ratio of the indomethacin-induced ulcer of the test compounds was calculated in the same manner as in Pharmacological Test 2. The test compound was orally administered to the rats in a concentration of 3×10^-4 mole in the form of 0.5% CMC suspension 30 minutes before the administration of indomethacin.
as §1

[3] = saline control = 0, read-out: Inhibitory ratio, Pepsin activity
[4] = saline control = 0, read-out: Inhibitory ratio, Total acidity
[5] = saline control = 0, read-out: Inhibitory ratio, Volume of gastric juice

Compound	inhibition in vivo at 100 mg/kg (gastric juice secretion; [3])	inhibition in vivo at 100 mg/kg (gastric juice secretion; [4])	inhibition in vivo at 100 mg/kg (gastric juice secretion; [5])	Inhibitory ratio of stress ulcer (Stress Ulcer)	LD50 (Acute Toxicity)	Inhibitory ratio of acetic acid-induced ulcer ([1]; 20 mg/kg.day)	Inhibitory ratio of acetic acid-induced ulcer ([1]; 3 × 10^-5 mole/kg.day)	Inhibitory ratio of indomethacin-induced ulcer [2]
CCN(CC)C(=O)CCCSc1nnnn1C [Compound 1, N,N-Diethyl-4-(1-methyl-1,2,3,4-tetrazol-5-yl)thio-butyramide]	> 50%	> 50%	> 50%	++ (more than 60%)	> 500 mg/kg			
CCN(C(=O)CCCSc1nnnn1C)C1CCCCC1 [Compound 2, N-Ethyl-N-cyclohexyl-4-(1-methyl-1,2,3,4-tetrazol-5-yl)thio-butyramide]	> 50%	> 50%	> 50%		> 500 mg/kg	+ (30 to less than 60%)		
CCN(C(=O)CCCCc1nnnn1-c1ccccc1)C1CCCCC1 [Compound 4, N-Ethyl-N-cyclohexyl-5-(1-phenyl-1,2,3,4-tetrazol-5-yl)valeramide]	10 to 50%	10 to 50%	10 to 50%	++ (more than 60%)	> 500 mg/kg			
CN(C)c1ccc(NC(=O)CCCSc2nnnn2C)cc1 [Compound 7, N-[4-(N,N-dimethylamino)phenyl]-4-(1-methyl-1,2,3,4-tetrazol-5-yl)thio-butyramide]	10 to 50%	10 to 50%	> 50%	++ (more than 60%)	> 500 mg/kg			
CCN(C(=O)CCCSc1nnnn1C)c1ccccc1 [Compound 9, N-Ethyl-N-phenyl-4-(1-methyl-1,2,3,4-tetrazol-5-yl)thio-butyramide]					> 500 mg/kg	+ (30 to less than 60%)		
CCN(C(=O)CCCSc1nnnn1C)c1ccccn1 [Compound 10, N-Ethyl-N-(2-pyridyl)-4-(1-methyl-1,2,3,4-tetrazol-5-yl)thio-butyramide]		10 to 50%			> 500 mg/kg			
COc1ccc(CCN(C(=O)CCCSc2nnnn2C)C2CCCCC2)cc1OC [Compound 11, N-Cyclohexyl-N-[2-(3,4,-dimethoxyphenyl)-ethyl]-4-(1-methyl-1,2,3,4-tetrazol-5-yl)thio-butyramide]	10 to 50%	10 to 50%	10 to 50%		> 500 mg/kg			
CCc1ccc(-n2nnnc2CSCCC(=O)N(CC)CC)cc1 [Compound 12, N,N-Diethyl-3-[1-(4-ethylphenyl)-1,2,3,4-tetrazol-5-yl]methylthio-propionamide]	10 to 50%	10 to 50%	10 to 50%		> 500 mg/kg			
Cn1nnnc1SCCCC(=O)NCc1ccco1 [Compound 13, N-Furfuryl-4-(1-methyl-1,2,3,4-tetrazol-5-yl)thio-butyramide]	10 to 50%	10 to 50%	10 to 50%		> 500 mg/kg			
CCNC(=O)CCSCc1nnnn1-c1ccccc1 [Compound 16, N-Ethyl-3-(1-phenyl-1,2,3,4-tetrazol-5-yl)-methylthio-propionamide]				+ (30 to less than 60%)	> 500 mg/kg			
CCNC(=O)CCCSCc1nnnn1CC [Compound 17, N-Ethyl-4-(1-ethyl-1,2,3,4-tetrazol-5-yl)-methylthio-butyramide]				+ (30 to less than 60%)	> 500 mg/kg			
CCn1nnnc1CSCCC(N)=O [Compound 19, 3-(1-Ethyl-1,2,3,4-tetrazol-5-yl)methylthio-propionamide]					> 500 mg/kg		+ (30 to less than 60%)	
COc1ccc(CCNC(=O)CCCSc2nnnn2C)cc1OC [Compound 26, N-[2-(3,4-Dimethoxyphenyl)ethyl]-4-(1-methyl-1,2,3,4-tetrazol-5-yl)thio-butyramide]	< 10%	10 to 50%	> 50%			+ (30 to less than 60%)		
CN(C)C(=O)CCCSc1nnnn1C [Compound 28, N,N-Dimethyl-4-(1-methyl-1,2,3,4-tetrazol-5-yl)thio-butyramide]	10 to 50%	> 50%	> 50%			+ (30 to less than 60%)		
COC(=O)CCCSc1nnnn1C [Compound 37, Methyl 4-(1-methyl-1,2,3,4-tetrazol-5-yl)-thio-butyrate]			10 to 50%			+ (30 to less than 60%)		
CN(Cc1cccs1)C(=O)CCCSc1nnnn1C [Compound 39, N-Methyl-N-(2-thienylmethyl)-4-(1-methyl-1,2,3,4-tetrazol-5-yl)thio-butyramide]			> 50%					+ (30 to less than 60%)
COC1CCC(NC(=O)CCCSc2nnnn2C)CC1 (centres unmarked) [Compound 45, N-(4-Methoxycyclohexyl)-4-(1-methyl-1,2,3,4-tetrazol-5-yl)thio-butyramide]			10 to 50%					++ (more than 60%)
CCN(C(=O)CCCc1nnnn1-c1ccccc1)C1CCCCC1 [Compound 46, N-Ethyl-N-cyclohexyl-4-(1-phenyl-1,2,3,4-tetrazol-5-yl)butyramide]	< 10%	10 to 50%	10 to 50%	++ (more than 60%)				++ (more than 60%)
CCCCNC(=O)CCCCc1nnnn1-c1ccccc1 [Compound 47, N-(n-Butyl)-5-(1-phenyl-1,2,3,4-tetrazol-5-yl)valeramide]				+ (30 to less than 60%)				+ (30 to less than 60%)
COc1ccc(NC(=O)CCCCc2nnnn2-c2ccccc2)cc1 [Compound 49, N-(4-Methoxyphenyl)-5-(1-phenyl-1,2,3,4-tetrazol-5-yl)valeramide]				+ (30 to less than 60%)				+ (30 to less than 60%)
CCCCN(C(=O)CCCSc1nnnn1C)C1CCCCC1 [Compound 55, N-Cyclohexyl-N-butyl-5-(1-methyl-1,2,3,4-tetrazol-5-yl)thio-butyramide]						+ (30 to less than 60%)		
N,N-Dicyclohexyl-5-(1-methyl-1,2,3,4-tetrazol-5-yl)thio-butyramide [Compound 58]						+ (30 to less than 60%)		
N-Ethyl-N-cyclooctyl-5-(1-methyl-1,2,3,4-tetrazol-5-yl)thio-butyramide [Compound 56]						+ (30 to less than 60%)		
